# Columns and labels:
# RA patients [1] = assay: CRP analysis (immunoturbidimetric assay), Study 1; assay type: in vivo, human
# Description: Double-blind, placebo-controlled add on study in subjects with moderately to severely active RA who have an inadequate response to methotrexate (MTX) (oral or parenteral).
# Compound 1 (dosed as a [Compound 1:HCl:3H2O]) is dosed for twelve weeks once daily (q.d.) (50 mg, 100 mg or 200 mg) or twice daily (b.i.d.) (25 mg, 50 mg or 100 mg); or placebo.
# At Week 12, the subjects on placebo who have not achieved 20% improvement in swollen joint count (SJC66) and tender joint count (TJC68) are re-randomized automatically to receive Compound 1 (dosed as a [Compound 1:HCl:3H2O]) either at 100 mg q.d. or 50 mg b.i.d. doses in a blinded fashion; subjects on 50 mg q.d. who have not achieved 20% improvement in SJC66 and TJC68 will be assigned to 100 mg q.d. and subjects on 25 mg b.i.d. that have not achieved a 20% improvement in SJC66 and TJC68 will be assigned to 50 mg b.i.d. Subjects who switch treatment at week 12 are handled as if they discontinued at week 12 for the purpose of statistical analysis, whereas subjects in the other groups will maintain their randomized treatment until Week 24.
# The determination of CRP is made using Immunoturbidimetric assay for the in vitro quantitative determination of CRP in human serum and plasma on Roche/Hitachi cobas c systems, wherein human CRP agglutinates with latex particles coated with monoclonal anti-CRP antibodies. The aggregates are determined turbidimetrically (Eda et al., 1998; Price et al., 1987).
# Human serum and plasma samples [CRP] determination was done on a Roche/Hitachi Cobas c 301 c 501/502 system which automatically calculate the analyte concentration of each sample. Samples containing precipitates are centrifuged before performing the assay.
# The Hommel-corrected p-value for the pairwise comparisons of each group with placebo is shown.
# The number of subjects (N) provided in each groups corresponds to the number of patients starting the study in each group, and the ACR data reported below corresponds to the responding patients continuing for the entire 24 weeks on their initial treatment course.
# RA patients [2] = assay: LDL determination, Study 4 (RA patients, 4 weeks, add-on to MTX); assay type: in vivo, human; conditions: for [LDL] levels: Study 4
# From the text: Randomized, double-blind, placebo-controlled, multicenter, phase II study of Compound 1 (dosed as a [Compound 1:HCl:3H2O]) to compare four dose regimens versus placebo, in combination with methotrexate, administered for 4 weeks in the treatment of subjects with active rheumatoid arthritis who have an inadequate response to methotrexate alone.
# Randomized double-blind, placebo-controlled add on study in subjects with active RA who have an inadequate response to MTX monotherapy, in combination with methotrexate, administered for 4 weeks in the treatment of subjects with active rheumatoid arthritis who have an inadequate response to methotrexate alone.
# 90 subjects randomized to one of 4 dose regimens of Compound 1 (dosed as a [Compound 1:HCl:3H2O]) or placebo, on top of their stable dose of MTX. Thus, each of the 4 different doses of Compound 1 (dosed as a [Compound 1:HCl:3H2O]) and placebo groups has 18 subjects.
# Compound 1 (dosed as a [Compound 1:HCl:3H2O]) capsules administered orally in 30 mg, 75 mg, 150 mg, or 300 mg doses per day for 4 weeks.
# The determination of [LDL]-cholesterol is made using an automated method taking advantage of the selective micellary solubilization of [LDL]-cholesterol by a nonionic detergent and the interaction of a sugar compound and lipoproteins (VLDL and chylomicrons).
# When a detergent is included in the enzymatic method for cholesterol determination (cholesterol esterase, cholesterol oxidase coupling reaction), the relative reactivities of cholesterol in the lipoprotein fractions increase in this order: [HDL]<chylomicrons <VLDL <[LDL]. In the presence of Mg^2+, a sugar compound markedly reduces the enzymatic reaction of the cholesterol measurement in VLDL and chylomicrons. The combination of a sugar compound with detergent enables the selective determination of [LDL]-cholesterol in serum. (Friedewald et al., 1972; Rifai et al., 1992)
# Homogeneous enzymatic colorimetric assay.
# In the presence of peroxidase, the hydrogen peroxide generated reacts with 4-aminoantipyrine and Sodium N-(2-hydroxy-3-sulfopropyl)-3,5-dimethoxyaniline (HSDA) to form a purple-blue dye.
# The color intensity of this dye is directly proportional to the cholesterol concentration and is measured photometrically.
# Human serum and plasma samples [LDL] determination was done on a Roche/Hitachi Cobas c 701/702 system which automatically calculate the analyte concentration of each sample. Samples containing precipitates are centrifuged before performing the assay.
smiles,measurement,setting,value
"O=C(Nc1nc2cccc(-c3ccc(CN4CCS(=O)(=O)CC4)cc3)n2n1)C1CC1 [Compound 1, cyclopropanecarboxylic acid {5-[4-(1,1-dioxo-thiomorpholin-4-ylmethyl)-phenyl]-[1,2,4]triazolo[1,5-a]pyridin-2yl}-amide]",CRP mean CFB (LOCF) - 24 weeks results,"RA patients [1]; 50 mg q.d., week 1",-7.95 mg/L
same,CRP mean CFB (LOCF) - 24 weeks results,"RA patients [1]; 50 mg q.d., week 2",-8.23 mg/L
same,CRP mean CFB (LOCF) - 24 weeks results,"RA patients [1]; 50 mg q.d., week 4",-10.18 mg/L
same,CRP mean CFB (LOCF) - CRP variation,"RA patients [1]; 50 mg q.d., week 8",-12.02 mg/L
same,CRP mean CFB (LOCF) - 24 weeks results,"RA patients [1]; 50 mg q.d., week 12",-13.15 mg/L
same,CRP mean CFB (LOCF) - 24 weeks results,"RA patients [1]; 100 mg q.d., week 1",-11.02 mg/L
same,CRP mean CFB (LOCF) - 24 weeks results,"RA patients [1]; 100 mg q.d., week 2",-12.94 mg/L
same,CRP mean CFB (LOCF) - 24 weeks results,"RA patients [1]; 100 mg q.d., week 4",-13.18 mg/L
same,CRP mean CFB (LOCF) - 24 weeks results,"RA patients [1]; 100 mg q.d., week 8",-12.48 mg/L
same,CRP mean CFB (LOCF) - 24 weeks results,"RA patients [1]; 100 mg q.d., week 12",-13.57 mg/L
same,CRP mean CFB (LOCF) - 24 weeks results,"RA patients [1]; 200 mg q.d., week 1",-17.06 mg/L
same,CRP mean CFB (LOCF) - 24 weeks results,"RA patients [1]; 200 mg q.d., week 2",-17.51 mg/L
same,CRP mean CFB (LOCF) - 24 weeks results,"RA patients [1]; 200 mg q.d., week 4",-17.94 mg/L
same,CRP mean CFB (LOCF) - 24 weeks results,"RA patients [1]; 200 mg q.d., week 8",-17.22 mg/L
same,CRP mean CFB (LOCF) - 24 weeks results,"RA patients [1]; 200 mg q.d., week 12",-17.24 mg/L
same,CRP mean CFB (LOCF) - 24 weeks results,"RA patients [1]; 2 × 25 mg b.i.d., Week 1",-8.47 mg/L
same,CRP mean CFB (LOCF) - 24 weeks results,"RA patients [1]; 2 × 25 mg b.i.d., Week 2",-10.06 mg/L
same,CRP mean CFB (LOCF) - 24 weeks results,"RA patients [1]; 2 × 25 mg b.i.d., Week 4",-7.72 mg/L
same,CRP mean CFB (LOCF) - 24 weeks results,"RA patients [1]; 2 × 25 mg b.i.d., Week 8",-10.94 mg/L
same,CRP mean CFB (LOCF) - 24 weeks results,"RA patients [1]; 2 × 25 mg b.i.d., Week 12",-10.26 mg/L
same,CRP mean CFB (LOCF) - 24 weeks results,"RA patients [1]; 2 × 25 mg b.i.d., Week 20",-12.20 mg/L
same,CRP mean CFB (LOCF) - 24 weeks results,"RA patients [1]; 2 × 50 mg b.i.d., Week 1",-10.08 mg/L
same,CRP mean CFB (LOCF) - 24 weeks results,"RA patients [1]; 2 × 50 mg b.i.d., Week 2",-11.03 mg/L
same,CRP mean CFB (LOCF) - 24 weeks results,"RA patients [1]; 2 × 50 mg b.i.d., Week 4",-13.28 mg/L
same,CRP mean CFB (LOCF) - 24 weeks results,"RA patients [1]; 2 × 50 mg b.i.d., Week 8",-13.25 mg/L
same,CRP mean CFB (LOCF) - 24 weeks results,"RA patients [1]; 2 × 50 mg b.i.d., Week 12",-12.97 mg/L
same,CRP mean CFB (LOCF) - 24 weeks results,"RA patients [1]; 2 × 100 mg b.i.d., Week 1",-17.39 mg/L
same,CRP mean CFB (LOCF) - 24 weeks results,"RA patients [1]; 2 × 100 mg b.i.d., Week 2",-19.69 mg/L
same,CRP mean CFB (LOCF) - 24 weeks results,"RA patients [1]; 2 × 100 mg b.i.d., Week 4",-20.64 mg/L
same,CRP mean CFB (LOCF) - 24 weeks results,"RA patients [1]; 2 × 100 mg b.i.d., Week 8",-21.32 mg/L
same,CRP mean CFB (LOCF) - 24 weeks results,"RA patients [1]; 2 × 100 mg b.i.d., Week 12",-20.54 mg/L
same,CRP mean CFB (LOCF) - 24 weeks results,"RA patients [1]; 2 × 100 mg b.i.d., Week 20",-20.80 mg/L
same,[LDL] % Mean % variation vs baseline after 4 weeks,RA patients [2]; 30 mg qd,7%
same,[LDL] % Mean % variation vs baseline after 4 weeks,RA patients [2]; 75 mg qd,7%
same,[LDL] % Mean % variation vs baseline after 4 weeks,RA patients [2]; 150 mg qd,1%
same,[LDL] % Mean % variation vs baseline after 4 weeks,RA patients [2]; 300 mg qd,13%
same,[LDL] levels,"RA patients [2]; 30 mg q.d., baseline",3.34 mmol/L
same,[LDL] levels,"RA patients [2]; 30 mg q.d., week 1",3.40 mmol/L
same,[LDL] levels,"RA patients [2]; 30 mg q.d., week 2",3.35 mmol/L
same,[LDL] levels,"RA patients [2]; 30 mg q.d., week 3",3.41 mmol/L
same,[LDL] levels,"RA patients [2]; 30 mg q.d., week 4",3.60 mmol/L
same,[LDL] levels,"RA patients [2]; 75 mg q.d., baseline",3.22 mmol/L
same,[LDL] levels,"RA patients [2]; 75 mg q.d., week 1",3.25 mmol/L
same,[LDL] levels,"RA patients [2]; 75 mg q.d., week 2",3.17 mmol/L
same,[LDL] levels,"RA patients [2]; 75 mg q.d., week 3",3.14 mmol/L
same,[LDL] levels,"RA patients [2]; 75 mg q.d., week 4",3.36 mmol/L
same,[LDL] levels,"RA patients [2]; 150 mg q.d., baseline",3.01 mmol/L
same,[LDL] levels,"RA patients [2]; 150 mg q.d., week 1",3.18 mmol/L
same,[LDL] levels,"RA patients [2]; 150 mg q.d., week 2",2.95 mmol/L
same,[LDL] levels,"RA patients [2]; 150 mg q.d., week 3",2.96 mmol/L
same,[LDL] levels,"RA patients [2]; 150 mg q.d., week 4",3.06 mmol/L
same,[LDL] levels,"RA patients [2]; 300 mg q.d., baseline",2.82 mmol/L
same,[LDL] levels,"RA patients [2]; 300 mg q.d., week 1",3.19 mmol/L
same,[LDL] levels,"RA patients [2]; 300 mg q.d., week 2",3.11 mmol/L
same,[LDL] levels,"RA patients [2]; 300 mg q.d., week 3",3.18 mmol/L
same,[LDL] levels,"RA patients [2]; 300 mg q.d., week 4",3.18 mmol/L

# From patent US10376520B2, “Methods for the treatment of cardiovascular disorders” (Galapagos NV, priority 2015, dated 2019)
